Values joined by “and” are separate entries in the source; they are usually repeats but may differ in a detail not shown here. Equal entries are not always repeated. Active and inactive are the calls of the source.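 How the source made its calls: active means compounds giving half or more protection of infected cells from virus-caused growth loss, again on retest; inactive means the rest.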 Where a SMILES comes first, the peptide text is derived from it. The star is where a group is joined. Cbz = O=C(OCc1ccccc1)*; NHNH2 = NN*
Test system: CEM cells HIV-1 protection, formazan growth assay
Test: NCI AIDS Antiviral Assay
Conditions: for IC50: measured here: growth of uninfected CEM cells
How it was run: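 Category rules: moderately active means at least 50% protection on retest, and confirmed active means 100% protection reproducibly. The underlying data came from a formazan growth assay in HIV-1-infected CEM cells.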

| SMILES | EC50 | IC50 | outcome |
| --- | --- | --- | --- |
| O=c1/c(=C/c2ccccc2O)sc2nc3ccccc3n12 | > 17.8 µM | > 17.8 µM |  |
| O=c1cc(N=Nc2ccc(O)cc2)[nH]c(=O)[nH]1 | > 200 µM | 11.5 µM |  |
| O/C(=C\c1nc2ccccc2nc1NC12CC3CC(CC(C3)C1)C2)c1ccc(Br)cc1 | > 200 µM | > 200 µM |  |
| COP(=O)(OC)C(=NCc1ccccc1)NNc1ccc([N+](=O)[O-])cc1 | > 200 µM | 191 µM |  |
| CC(=O)O[C@]12CCCCCC1C1(O)C(O)CCC[C@H]12 (some centres undefined) | > 200 µM | > 200 µM |  |
| CN(/N=C/c1cccs1)c1ccc(Cl)cc1[N+](=O)[O-] | > 200 µM | 60.3 µM |  |
| CCCCCCN(CCCCCC)C(F)(F)C(=O)Nc1ccc(S(=O)(=O)c2ccc(NC(=O)C(F)(F)N(CCCCCC)CCCCCC)cc2)cc1 | > 100 µM | 5.13 µM |  |
| O=[N+]([O-])c1ccc(C2NC3=C(CCCC3)N2)cc1 | > 40.7 µM | > 40.7 µM |  |
| Cc1cc(=O)oc2cc(O)ccc12 | > 741 µM | 191 µM and > 200 µM |  |
| O=C(NCCN1CCCCC1)c1ccc(I)cc1 | > 200 µM | > 200 µM |  |
| COc1cccc(C2NC(=S)N3C(c4cccc(OC)c4)NC(=S)N23)c1 (centres undefined) |  |  | inactive |
| Cc1nn(C(=O)c2ccccc2O)c2c1C(c1ccc(O)cc1O)SC(N)=N2 (centres undefined) | > 2 µM | 0.331 µM |  |
| c1ccc2c(c1)nc1nc3c(cn12)CCCCC3 |  |  | inactive |
| Cc1nc2sc(C(=O)c3ccc(Cl)cc3)c(N)c2c(-c2ccccc2Cl)c1C(=O)Nc1ccccc1 | > 200 µM | 3.02 µM |  |
| CC1C(=O)C(C)C(c2ccccc2)NC1c1ccccc1 (centres undefined) | > 67.6 µM | > 67.6 µM |  |
| COc1cc(C=O)c(-c2c(C=O)ccc3c2OCO3)c(OC)c1OC | > 135 µM | 20 µM |  |
| CCCNC(=S)/N=C\c1c(O)c2ccccc2oc1=O | > 200 µM | > 200 µM |  |
| C=C1C2CCC3C(CCC4C5(C)CCCC43C3OCCN3C5)(C2)C1OC(C)=O (centres undefined) |  |  | inactive |
| O=C1N=C2SC(=S)NC(=S)N2NC12c1ccccc1-c1ccccc12 | > 200 µM | 32.4 µM |  |
| S=C1CSc2c(cnc3ccccc23)N1 | > 200 µM | 105 µM |  |
| COC(=O)[C@@H]1C[C@H]([Se]c2ccccc2)CN1S(=O)(=O)c1ccc(C)cc1 |  |  | inactive |
| CC1=C2[C@@H](c3ccccc3)C3C=CC2(C=C3C(F)(F)F)N(C(=O)NC2CCCCC2)C1=O (some centres undefined) | > 16.2 µM | > 16.2 µM |  |

| SMILES | EC50 | IC50 | outcome |
| --- | --- | --- | --- |
| CCOC(=O)/C(=C\c1cccc(F)c1)C(C)=O | > 398 µM | 182 µM |  |
| OC1(c2ccccc2)Oc2ccccc2C(c2ccccc2)C1c1ccccc1 (centres undefined) | > 200 µM | 9.55 µM |  |
| CN(C)c1ccc(-c2nn(C)c3nc(=O)n(C)c(=O)c-3[n+]2[O-])cc1 | > 200 µM | 0.562 µM |  |
| O=[P+](O)c1cccnc1 |  |  | inactive |
| CCCCNC(=O)Sc1ccccc1C(=O)N[C@H](C)C(N)=O | 1.12 µM | 112 µM |  |
| O=[N+]([O-])c1cc([As](=O)(O)O)ccc1O | > 200 µM | > 200 µM |  |
| Fc1ccc(/C=N\N=C(N/N=C/c2ccc(F)cc2)N/N=C/c2ccc(F)cc2)cc1 | > 200 µM | 19.5 µM |  |
| COC(=O)C(=O)C(C(=O)C=C(C)C)C(=O)C(=O)Nc1ccc(C)cc1C (centres undefined) | > 100 µM | > 100 µM |  |
| CCCCc1ccc(Nc2nc3c(ncn3C3OC(COC(C)=O)C(OC(C)=O)C3OC(C)=O)c(=O)[nH]2)cc1 (centres undefined) | > 200 µM | 11.7 µM |  |
| CC(=O)c1c(O)c2ccccc2oc1=O | > 200 µM | 120 µM |  |
| C/C(=N\NS(=O)(=O)c1ccc(C)cc1)c1ccccn1 | > 200 µM | 58.9 µM |  |
| C/C=C/C(=O)[C@@H](O)C(C)C |  |  | inactive |
| COc1cc(-c2ccc(N=Nc3cc4cc(S(=O)(=O)O)ccc4cc3O)c(OC)c2)ccc1N=Nc1cc2cc(S(=O)(=O)O)ccc2cc1O | 17.4 µM | 120 µM |  |
| C#CCOCn1cnc2c(Sc3c([N+](=O)[O-])ncn3C)ncnc21 | > 105 µM | 38 µM |  |
| N#C/C(=C\c1cccc(C#N)c1)C(=O)O | > 50.1 µM | > 50.1 µM |  |
| CCCCc1ccc(-n2sc3ncc([N+](=O)[O-])cc3c2=O)cc1 | > 17 µM | 10 µM |  |
| COC(=O)C12C3C4C1C1C2C3C41I (centres undefined) | > 126 µM | > 126 µM |  |
| CCCCCCCC(=O)c1ccc(O)c(C(=O)Nc2cccc(C(F)(F)F)c2)c1 | > 12.9 µM | 0.145 µM |  |
| Cc1ccc(N=NC2=C3Sc4ccccc4N=C2N(c2ccc(Br)cc2)C(=S)N3c2ccc(Cl)cc2)cc1 | > 45.7 µM | > 45.7 µM |  |
| CSc1nnc(SC)c2[nH]cnc12 | > 200 µM | > 200 µM |  |
| COC(=O)CC(NC(=O)OCc1ccccc1)C(=O)NC(CC(=O)OC)C(=O)NC(CC(=O)OC)C(=O)NC(CC(=O)OC)C(=O)NC(CC(=O)OC)C(=O)NC(CC(=O)OC)C(=O)NN (centres undefined) (Cbz-D(OMe)D(OMe)D(OMe)D(OMe)D(OMe)D(OMe)-NHNH2; configuration not given here) | > 100 µM | > 100 µM |  |
| Clc1ccc(CN2COc3c(ccc4ccccc34)C2)cc1Cl | > 200 µM | 31.6 µM |  |

| SMILES | EC50 | IC50 | outcome |
| --- | --- | --- | --- |
| CCOC(=O)CSc1nc(-c2ccccc2)c(C#N)c(=O)[nH]1 |  |  | inactive |
| O=S(=O)(O)ON=C1c2ccccc2-c2ccccc21 | > 200 µM | 195 µM |  |
| CC1=NN(C(=O)c2ccccc2O)C(=O)/C1=C/c1ccccc1O | > 30.9 µM | 0.0617 µM |  |
| CC(CNC(=O)CCC(N)C(=O)O)C(=O)O (centres undefined) |  |  | inactive |
| CCOP(=S)(N/N=C1/C2(C)CCC(C2)C1(C)C)OCC (centres undefined) | > 200 µM | 20 µM |  |
| CCCCCCCCCCCCS(=O)(=O)O.[Pb] | > 200 µM | > 200 µM |  |
| NNC(=O)N/N=C1\CNC(=O)C(=O)C1c1nc2ccccc2s1 (centres undefined) |  |  | inactive |
| CNC(=O)CNC(=O)N(C[C@@H]1CCCN1C(=O)[C@H](CC(C)C)NC(=O)OC(C)(C)C)C(C)C | > 200 µM | > 200 µM |  |
| Nc1nc(Cl)c(N)c(NCC2(CO)CC(O)C2)n1 (centres undefined) | > 200 µM | > 200 µM |  |
| C1OC1CN1CCC(C2CCN(CC3CO3)CC2)CC1 (centres undefined) | > 200 µM | 0.269 µM |  |
| O=C(O)C1CC(C(=O)O)SS1 (centres undefined) | > 1290 µM | > 1290 µM |  |
| COC1OC(CO)C(O)C2NCSC12 (centres undefined) | 33.9 µM | > 200 µM |  |
| Cc1ccc2nc(-c3ccc(N=Nc4cc(S(=O)(=O)O)c5ccccc5c4O)cc3)sc2c1S(=O)(=O)O | > 50.1 µM | > 50.1 µM |  |
| Cc1nnc(Cc2ccccc2)c2n[nH]c(C)c12 | > 398 µM | 110 µM |  |
| N#Cc1ccccc1NC(=O)/C(=N\NC(=O)c1ccncc1)C(c1cnc2ccc([N+](=O)[O-])cc2n1)[N+](=O)[O-] (centres undefined) | > 479 µM | 191 µM |  |
| [CH3][Sn]([CH3])([Cl])[CH2]C(P(=O)(c1ccccc1)c1ccccc1)P(=O)(c1ccccc1)c1ccccc1 | > 50.1 µM | 2.29 µM |  |
| COc1cc(CNc2ccc(C(C)C)cc2)cc(OC)c1OC | > 74.1 µM | 31.6 µM |  |
| Nc1ccc2n[se]nc2c1 |  |  | inactive |
| O=C1C=C2C3c4c(cc(O)cc4C4c5c(O)cc6c(c5[C@@H]5C(c7ccc(O)cc7)C1C(=O)[C@@]25[C@@H]4c1ccc(O)cc1)[C@@H](c1cc(O)cc(O)c1)[C@H](c1ccc(O)cc1)O6)O[C@H]3c1ccc(O)cc1 (some centres undefined) | > 15.8 µM | 10.7 µM |  |
| CC(=O)OC1(C#N)CC2OC1C1C2N1C(=O)c1ccccc1 (centres undefined) | > 316 µM | > 316 µM |  |
| OC1OC(c2ccc[nH]2)C(F)(F)C(F)(F)C1(F)F (centres undefined) | > 200 µM | 67.6 µM |  |
| CN(C)CCCN1CCc2c([nH]c3ccccc23)C1c1cccnc1 (centres undefined) | > 107 µM | > 107 µM |  |

| SMILES | EC50 | IC50 | outcome |
| --- | --- | --- | --- |
| CC(=O)C1CCN(c2ccccc2)C1 (centres undefined) |  |  | inactive |
| C[C@H](N)C(O)C/C=C\C/C=C\C/C=C\C/C=C\C/C=C\C/C=C\CCCCCCC(O)[C@H](C)N (some centres undefined) |  |  | inactive |
| CC(C)CC(C#N)C(N)=O (centres undefined) | > 200 µM | > 200 µM |  |
| CC1(C)C=C(/C=N/Nc2ccc(Br)cc2)C(C#N)=C(O)C1(C#N)C#N | > 200 µM | 28.8 µM |  |
| O/N=C1\CCCC\C1=C/c1ccccc1 |  |  | inactive |
| N#Cc1cc([N+](=O)[O-])ccc1NC(=O)C(F)(F)F | > 100 µM | 89.1 µM |  |
| CCc1cc2c(c3c1CCCC3=O)CC1(C2)Cc2cc(CC)c3c(c2C1)C(=O)CCC3 | > 200 µM | 138 µM |  |
| O=C(O)/C=C/c1ccc2c(c1)CC1(Cc3ccccc3C1)C2 | > 200 µM | 49 µM |  |
| O=C1c2ccccc2C(=O)c2cc(N=Nc3c(O)ccc4ccccc34)ccc21 | > 100 µM | > 100 µM |  |
| CC(=O)NC1C(OCc2ccccc2)OC(CO)C(O)C1OC(C)C(=O)NC(C)C(=O)N[C@H](CCC(=O)OCCNCCCNc1ccc([N+](=O)[O-])c2[nH]c3ccccc3c(=O)c12)C(N)=O (some centres undefined) | > 200 µM | 60.3 µM |  |
| CC(C)=CCC[C@@H](C)C1=C(O)C(N)=C(C)C(=O)C1=O | > 200 µM | 12 µM |  |
| C=CCNC(=O)N(CCCCC(NC(C)=O)C(=O)NCc1ccccc1)Cc1ccccc1 (centres undefined) | > 550 µM | 372 µM |  |
| COC(=O)Cc1c([C@H]2[C@H](CC(=O)OC)c3ccccc3N2S(=O)(=O)c2ccc(C)cc2)[nH]c2ccccc12 | > 102 µM | 11.5 µM |  |
| CCN(CC)CCN1CCc2c([nH]c3ccccc23)C1c1cccnc1 (centres undefined) | > 145 µM | > 145 µM |  |
| C=C(Br)CN1CCC2(c3ccccc3)C(O)C([Se]c3ccccc3)CCC12 (centres undefined) | > 27.5 µM | > 27.5 µM |  |
| CCOc1ccccc1N1CSc2nnc(-c3ccccc3)n2C1 | > 148 µM | 83.2 µM |  |
| CC1CC(=O)C(CC(=O)O)C1C(C(=O)C(=O)Nc1c(C#N)cccc1[N+](=O)[O-])[N+](=O)[O-] (centres undefined) |  |  | inactive |
| COC(=O)C(Cc1nc2ccccc2[nH]c1=O)C(=O)C(=O)Nc1ccc(F)cc1 (centres undefined) | > 91.2 µM | 16.2 µM |  |
| CCSC(CC(O)C(O)C(O)CO)SCC (centres undefined) | > 200 µM | > 200 µM |  |
| CCCC1C(=O)N2C(N(C)C)=Nc3ccc(C)cc3N2C1=O (centres undefined) | > 832 µM | 457 µM |  |
| Clc1cc(Cl)cc(N=C/C=C/Nc2cc(Cl)cc(Cl)c2)c1 |  |  | inactive |

From PubChem BioAssay AID179 (DTP/NCI, 2004)
